Each structure is given as a SMILES string.

From patent publication US12049466B2, “Fused bicyclic compounds useful as ubiquitin-specific peptidase 30 inhibitors” (FORMA Therapeutics, Inc., priority 2018, dated 2024) come the findings set out here.

The test addresses T1, human recombinant USP30 (Homo sapiens, UniProt Q70CQ3).
T1 construct: purchased Boston Biochem E-582
T1 sequence (Q70CQ3 1-517): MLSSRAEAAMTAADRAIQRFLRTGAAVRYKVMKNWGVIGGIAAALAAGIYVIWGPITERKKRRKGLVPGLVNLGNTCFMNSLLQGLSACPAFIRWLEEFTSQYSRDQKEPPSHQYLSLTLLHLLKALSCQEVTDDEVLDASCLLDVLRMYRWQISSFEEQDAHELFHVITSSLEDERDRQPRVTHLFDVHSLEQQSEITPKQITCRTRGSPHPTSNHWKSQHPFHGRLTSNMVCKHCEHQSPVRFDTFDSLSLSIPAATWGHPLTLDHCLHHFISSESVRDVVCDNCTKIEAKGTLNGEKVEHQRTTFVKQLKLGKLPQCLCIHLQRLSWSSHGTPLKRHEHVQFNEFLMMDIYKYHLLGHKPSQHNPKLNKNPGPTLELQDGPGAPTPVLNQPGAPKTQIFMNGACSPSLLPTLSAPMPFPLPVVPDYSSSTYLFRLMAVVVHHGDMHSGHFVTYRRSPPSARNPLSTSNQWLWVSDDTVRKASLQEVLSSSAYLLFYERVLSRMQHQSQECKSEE
The test is described as follows: Ubiquitin-Rhodamine 110 Assay for USP30 Activity (USP30 biochemical assay). Conditions: IC50 ranges; 0.4 nM enzyme, 25 nM Ub-Rh110, 30 min preincubation, test concentration 25 μM to 1.3 nM. The procedure: Assay Example A: Description of Biochemical Assay: Ubiquitin-Rhodamine 110 Assay for USP30 Activity
The assay was performed in a final volume of 6 μL in assay buffer containing 20 mM Tris-HCl (pH 8.0, (1M Tris-HCl, pH 8.0 solution; Corning 46-031-CM)), 1 mM GSH (L-glutathione reduced, Sigma-Aldrich, G4251-100G), 0.03% BGG ([…], Sigma, G7516-25G), and 0.01% Triton X-100 (Sigma, T9284-10L). Nanoliter quantities of 10-point, 3-fold serial dilution in DMSO were pre-dispensed into 1536 assay plates (Corning, #3724BC) for a final test concentration of 25 μM to 1.3 nM, top to lowest dose, respectively. Concentration and incubation times were optimized for the maximal signal-to-background while maintaining initial velocity conditions at a fixed substrate concentration (<<Km). The final concentration of enzyme (human recombinant USP30, Boston Biochem, cat. #E-582) in the assay was 0.4 nM. Final substrate (Ub-R^h110; Ubiquitin-Rhodamine 110, UbiQ-126) concentration was 25 nM. 3 μL of 2× enzyme was added to assay plates (pre-stamped with compound), preincubated for 30 minutes and then treated with 3 μL of 2× substrate. Plates were read for fluorescence on the Envision (Perkin Elmer) or PheraSTAR (BMG) (excitation at 485 nm and emission at 535 nm) 5 times over the course of 11 minutes and the slope of this kinetic read used to normalize the raw data.
For all assay formats, data were reported as percent inhibition compared with control wells based on the following equation: % inh=1−((FLU−AveLow)/(AveHigh−AveLow)) where FLU=measured Fluorescence, AveLow=average Fluorescence of no enzyme control (n=32), and AveHigh=average Fluorescence of DMSO control (n=32). IC50 values were determined by curve fitting of the standard 4 parameter logistic fitting algorithm included in the Activity Base software package: IDBS XE Designer Model205. Data are fitted using the Levenburg Marquardt algorithm.
Take `N#CN1CC[C@@H]2CCN(c3ncc(C4CCCCC4)s3)C(=O)[C@H]2C1` (single isomer, unassigned) [1-12R,R]: the IC50 (usually the concentration needed to halve the response being measured) is 100 to 1000 nM.
For `N#CN1CC[C@H]2CCN(c3ncc(C4CCCCC4)s3)C(=O)[C@H]2C1` (single isomer, unassigned) [1-12S,R], the half-inhibitory concentration (IC50) was in the range of 1000 to 10000 nM.
In the case of `N#CN1CC[C@H]2CCN(c3ncc(C4CCCCC4)s3)C(=O)[C@@H]2C1` (single isomer, unassigned) [1-12S,S], the half-inhibitory concentration (IC50) was 1000 to 10000 nM.
For `N#CN1CCN2CCN(c3ncc(N4CCCC[C@@H]4Cc4ccccc4)s3)C(=O)[C@H]2C1` (single isomer, unassigned) [1-118R,R], the IC50 lay in the range of 100 to 1000 nM.
Turning to `N#CN1CCN2CCN(c3ncc(N4CCCC[C@H]4Cc4ccccc4)s3)C(=O)[C@H]2C1` (single isomer, unassigned) [1-118R,S], the IC50 is less than 100 nM.
For `N#CN1CCN2CCN(c3ncc(N4CCCC[C@@H]4Cc4ccccc4)s3)C(=O)[C@@H]2C1` (single isomer, unassigned) [1-118S,R] the value was 100 to 1000 nM.
As to `N#CN1CCN2CCN(c3ncc(N4CCCC[C@H]4Cc4ccccc4)s3)C(=O)[C@@H]2C1` (single isomer, unassigned) [1-118S,S], the half-inhibitory concentration (IC50) fell in the range of 100 to 1000 nM.
Consider `N#CN1CC[C@@H]2CCN(c3ncc(C4CCCCC4)s3)C[C@@H]2C1` (single isomer, unassigned) [4-1R,S], for which the IC50 was in the range of 1000 to 10000 nM.
Take `N#CN1CC[C@H]2CCN(c3ncc(C4CCCCC4)s3)C[C@H]2C1` (single isomer, unassigned) [4-1S,R]: the IC50 was in the range of 1000 to 10000 nM.
For `N#CN1CC[C@H]2CN(c3ncc(C4CCCCC4)s3)C(=O)[C@H]2C1` (single isomer, unassigned) [5-1R,R], the IC50 was in the range of 10000 to 25000 nM.
As to `N#CN1CC[C@@H]2CN(c3ncc(C4CCCCC4)s3)C(=O)[C@@H]2C1` (single isomer, unassigned) [5-1S,S], the half-inhibitory concentration (IC50) lay within 1000 to 10000 nM.
For `N#Cc1cccc(-c2cnc(N3C[C@H]4CN(C#N)CC[C@H]4C3)nc2)c1` (single isomer, unassigned) [5-2R,R] the value was more than 25000 nM; for `N#Cc1cccc(-c2cnc(N3C[C@H]4CCN(C#N)C[C@H]4C3)nc2)c1` (single isomer, unassigned) [5-2S,S], 10000 to 25000 nM; for `N#CN1CCN2CCN(c3ncc(C4CCCCC4)s3)C(=O)[C@H]2C1` (single isomer, unassigned) [Compound 1-1R], less than 100 nM.
`N#CN1CCN2CCN(c3ncc(C4CCCCC4)s3)C(=O)[C@@H]2C1` (single isomer, unassigned) [Compound 1-1S]: the IC50 is 100 to 1000 nM.
For `CC(C)(C)c1sc(N2CCN3CCN(C#N)C[C@@H]3C2=O)nc1Cl` (single isomer, unassigned) [Compound 1-2R], the concentration for half-maximal inhibition (IC50) was less than 100 nM.
Consider `CC(C)(C)c1sc(N2CCN3CCN(C#N)C[C@H]3C2=O)nc1Cl` (single isomer, unassigned) [Compound 1-2S], for which the half-inhibitory concentration (IC50) was less than 100 nM.
For the compound `N#CN1CCN2CCN(c3nc(Cl)c(C4CCCCC4)s3)C(=O)[C@H]2C1` (single isomer, unassigned) [Compound 1-3R], the half-maximal inhibitory concentration (IC50) was less than 100 nM.
`N#CN1CCN2CCN(c3nc(Cl)c(C4CCCCC4)s3)C(=O)[C@@H]2C1` (single isomer, unassigned) [Compound 1-3S]: the IC50 was less than 100 nM.
Turning to `N#Cc1cccc(-c2cnc(N3CCN4CCN(C#N)C[C@@H]4C3=O)nc2)c1` (single isomer, unassigned) [Compound 1-4R], the half-inhibitory concentration (IC50) was in the range of 1000 to 10000 nM.
As for `N#Cc1cccc(-c2cnc(N3CCN4CCN(C#N)C[C@H]4C3=O)nc2)c1` (single isomer, unassigned) [Compound 1-4S], the half-inhibitory concentration (IC50) is 1000 to 10000 nM.
For `N#CN1CCN2CCN(c3ncc(-c4cccc(Cl)c4)cn3)C(=O)[C@H]2C1` (single isomer, unassigned) [Compound 1-5R], the 50% inhibitory concentration (IC50) lay in the range of 1000 to 10000 nM.
Turning to `N#CN1CCN2CCN(c3ncc(-c4cccc(Cl)c4)cn3)C(=O)[C@@H]2C1` (single isomer, unassigned) [Compound 1-5S], the concentration for half-maximal inhibition (IC50) lay within 1000 to 10000 nM.
On to `N#Cc1cccc(-c2cnc(N3CCN4CCN(C#N)C[C@@H]4C3=O)s2)c1` (single isomer, unassigned) [Compound 1-6R], for which the half-maximal inhibitory concentration (IC50) is less than 100 nM.
On to `N#Cc1cccc(-c2cnc(N3CCN4CCN(C#N)C[C@H]4C3=O)s2)c1` (single isomer, unassigned) [Compound 1-6S], for which the half-inhibitory concentration (IC50) was less than 100 nM.
In the case of `N#CN1CCN2CCN(c3ncc(-c4cccc(Cl)c4)s3)C(=O)[C@H]2C1` (single isomer, unassigned) [Compound 1-7R] it was less than 100 nM; in that of `N#CN1CCN2CCN(c3ncc(-c4cccc(Cl)c4)s3)C(=O)[C@@H]2C1` (single isomer, unassigned) [Compound 1-7S], less than 100 nM.
Consider `N#CN1CCN2CCN(c3cc(-c4cccc(Cl)c4)on3)C(=O)[C@H]2C1` (single isomer, unassigned) [Compound 1-11R], for which the IC50 is more than 25000 nM.
In the case of `N#CN1CCN2CCN(c3cc(-c4cccc(Cl)c4)on3)C(=O)[C@@H]2C1` (single isomer, unassigned) [Compound 1-11S] it was more than 25000 nM; in that of `N#CN1CCN2CCN(c3ncc(-c4ccccc4)s3)C(=O)[C@H]2C1` (single isomer, unassigned) [Compound 1-14R], less than 100 nM.
With `N#CN1CCN2CCN(c3ncc(-c4ccccc4)s3)C(=O)[C@@H]2C1` (single isomer, unassigned) [Compound 1-14S], the IC50 fell in the range of 100 to 1000 nM.
For `CC(C)(C)c1cnc(N2CCN3CCN(C#N)C[C@]3(C)C2=O)s1` (single isomer, unassigned) [Compound 1-15R] the value was 1000 to 10000 nM.
Regarding `N#CN1CCN2CCN(c3cc(-c4ccccc4Oc4ccccc4)[nH]n3)C(=O)[C@H]2C1` (single isomer, unassigned) [Compound 1-114R], the IC50 was in the range of 100 to 1000 nM.
Turning to `N#CN1CCN2CCN(c3cc(-c4ccccc4Oc4ccccc4)[nH]n3)C(=O)[C@@H]2C1` (single isomer, unassigned) [Compound 1-114S], the IC50 was 100 to 1000 nM.
`N#CN1CCN2CCN(c3ncc(-c4cccc(CN5CCC5)c4)s3)C(=O)[C@H]2C1` (single isomer, unassigned) [Compound 1-115R]: the IC50 was in the range of 1000 to 10000 nM.
On to `N#CN1CCN2CCN(c3ncc(-c4cccc(CN5CCC5)c4)s3)C(=O)[C@@H]2C1` (single isomer, unassigned) [Compound 1-115S], for which the half-maximal inhibitory concentration (IC50) lay within 1000 to 10000 nM.
On to `CC(C)(C)c1sc(N2CCN3CCN(C#N)C[C@@]3(F)C2=O)nc1Cl` (single isomer, unassigned) [Compound 1-116R], for which the IC50 was in the range of 1000 to 10000 nM.
For `CC(C)(C)c1sc(N2CCN3CCN(C#N)C[C@]3(F)C2=O)nc1Cl` (single isomer, unassigned) [Compound 1-116S], the 50% inhibitory concentration (IC50) fell in the range of 1000 to 10000 nM.
Regarding `C[C@]12CN(C#N)CCN1CCN(c1ncc(C3CCCCC3)s1)C2=O` (single isomer, unassigned) [Compound 1-117R], the IC50 was less than 100 nM.
Consider `C[C@@]12CN(C#N)CCN1CCN(c1ncc(C3CCCCC3)s1)C2=O` (single isomer, unassigned) [Compound 1-117S], for which the IC50 was 1000 to 10000 nM.
Turning to `N#CN1CC(=O)N2CCN(c3ncc(C4CCCCC4)s3)C[C@H]2C1` (single isomer, unassigned) [Compound 3-1R], the IC50 is less than 100 nM.
Take `N#CN1CC(=O)N2CCN(c3ncc(C4CCCCC4)s3)C[C@@H]2C1` (single isomer, unassigned) [Compound 3-1S]: the half-inhibitory concentration (IC50) was 100 to 1000 nM.
For `CC(C)(C)c1sc(N2CC(=O)N3CCN(C#N)C[C@@H]3C2=O)nc1Cl` (single isomer, unassigned) [Compound 6-1R], the concentration for half-maximal inhibition (IC50) is less than 100 nM.
For the compound `CC(C)(C)c1sc(N2CC(=O)N3CCN(C#N)C[C@H]3C2=O)nc1Cl` (single isomer, unassigned) [Compound 6-1S], the IC50 is less than 100 nM.
